Patent publication US5607927A, “Cephalosporin derivative” (Meiji Seika Kaisha, Ltd., priority 1992, dated 1997)
Values after ≈ are worked out from the molar mass of the structure shown.

Tests used:
[1] = acute toxicity (LD50) i.v. in mice; details: mouse, in vivo, iv
[2] = tested on: Sta. epidermidis ATCC 14990; test: minimum growth inhibitory concentration, ordinary serial dilution technique; format: cell-based; details: Staphylococcus epidermidis, ATCC14990, 10^6 CFU/ml, 35° C., 18 to 20 hours
Method: (§1) In this test example, antibacterial activities of the following typical examples of the compound (I) of the present invention upon various bacterial species are illustrated by showing their minimum growth inhibitory concentrations measured by the ordinary serial dilution technique. The measurement was made by inoculating 10^6 CFU/ml of each test strain on a Sensitivity Plate Medium N (Nissui Pharmaceutical Co., Ltd.) and culturing the inoculated cells at 35° C. for 18 to 20 hours.

E. coli NIHJ JC-2 = test: as above; format: cell-based; details: Escherichia coli, NIHJJC2, 10^6 CFU/ml, 35° C., 18 to 20 hours
Method: as §1

P. vulgaris GN 76 = test: as above; format: cell-based; details: Proteus vulgaris, GN76, 10^6 CFU/ml, 35° C., 18 to 20 hours
Method: as §1

M. morganii 1510/S-l = test: as above; format: cell-based; details: Morganella morganii, 1510/SL, 10^6 CFU/ml, 35° C., 18 to 20 hours
Method: as §1

K. pneumoniae PCI 602 = test: as above; format: cell-based; details: Klebsiella pneumoniae, PCI602, 10^6 CFU/ml, 35° C., 18 to 20 hours
Method: as §1

Sta. aureus 209P JC-1 = test: as above; format: cell-based; details: Staphylococcus aureus, 10^6 CFU/ml, Sensitivity Plate Medium N, 35° C., 18 to 20 hours
Method: as §1

[3] = tested on: Sta. aureus M 126 (methicillin-resistant); test: as above; format: cell-based; details: Staphylococcus aureus, 10^6 CFU/ml, 35° C., 18 to 20 hours
Method: as §1, with “hours. Test Compounds:” for “hours.”
(§2) Note: (*), methicillinresistant Staphylococcus aureus

[4] = tested on: Sta. aureus M 133 (methicillin-resistant); test: as above; format: cell-based; details: Staphylococcus aureus, 10^6 CFU/ml, 35° C., 18 to 20 hours
Method: as §1, with “hours. Test Compounds:” for “hours.”
as §2

[5] = concentration in blood after subcutaneous injection (serum concentration by HPLC); format: in vivo; details: sc, ICR mice, male, 0.5 mg per mouse subcutaneous; for Cmax: 4 weeks old, serum by HPLC, read-out: Maximum concentration in blood; for half-life / AUC: serum, Gauss-Newton method; for half-life: read-out: Half-life period (converted); for AUC: sampling 5 minutes to 2 hours, read-out: AUC (area under the plasma concentration-time curve)
Method: This test example illustrates that the following typical examples of the compound of the present invention can give and maintain their concentrations in blood at high levels after subcutaneous injection. Test Compounds:
The test was carried out in the following manner. Using five male mice of ICR line (4 weeks old, 1 individual/group for blood collection), 0.5 mg of each test compound dissolved in 0.2 ml of sterile water for injection use was administered to each mouse by subcutaneous injection. Blood collection was carried out after 5 minutes, 15 minutes, 30 minutes, 1 hour and 2 hours after the administration. Each of the thus collected blood samples was subjected to ordinary post-treatment, and then serum concentration of the cephem compound was measured by making use of HPLC. Half-life period and AUC (area under the plasma concentration-time curve) as pharmacokinetic parameters were calculated in accordance with the Gauss-Newton method.

SMILES: CO/N=C(\C(=O)NC1C(=O)N2C(C(=O)O)=C(Sc3nc4ccccc4s3)CS[C@H]12)c1nsc(N)n1 (some centres unmarked) [Compound A, 7-{(Z)-2-(5-amino-1,2,4-thiadiazol-3-yl)-2-methoxyiminoacetamido}-3-(benzothiazol-2-yl)thio-3-cephem-4-carboxylic acid]
- LD50 [1]: 1000 to 1500 mg/kg
- MIC [2]: 0.39 µg/mL (≈ 0.71 µM)
- MIC (E. coli NIHJ JC-2): 3.13 µg/mL (≈ 5.69 µM)
- MIC (P. vulgaris GN 76): 3.13 µg/mL (≈ 5.69 µM)
- MIC (M. morganii 1510/S-l): 1.56 µg/mL (≈ 2.84 µM)
- MIC (K. pneumoniae PCI 602): 3.13 µg/mL (≈ 5.69 µM)
- MIC (Sta. aureus 209P JC-1): 0.39 µg/mL (≈ 0.71 µM)
- MIC [3]: 3.13 µg/mL (≈ 5.69 µM)
- MIC [4]: 1.56 µg/mL (≈ 2.84 µM)
- Cmax [5]: 126 µg/mL
- half-life [5]: 1.8 h
- AUC [5]: 343 µg·h/mL

SMILES: CO/N=C(\C(=O)NC1C(=O)N2C(C(=O)O)=C(Sc3nc4cccnc4s3)CS[C@H]12)c1nsc(N)n1 (some centres unmarked) [Compound B, 7-{(Z)-2-(5-amino-1,2,4-thiadiazol-3-yl)-2-methoxyiminoacetamido}-3-(thiazolo[5,4-b]pyridin-2-yl)thio-3-cephem-4-carboxylic acid]
- MIC [2]: 0.39 µg/mL (≈ 0.708 µM)
- MIC (E. coli NIHJ JC-2): 3.13 µg/mL (≈ 5.68 µM)
- MIC (P. vulgaris GN 76): 12.5 µg/mL (≈ 22.7 µM)
- MIC (M. morganii 1510/S-l): 50 µg/mL (≈ 90.8 µM)
- MIC (K. pneumoniae PCI 602): 3.13 µg/mL (≈ 5.68 µM)
- MIC (Sta. aureus 209P JC-1): 0.78 µg/mL (≈ 1.42 µM)
- MIC [3]: 12.5 µg/mL (≈ 22.7 µM)
- MIC [4]: 3.13 µg/mL (≈ 5.68 µM)
- Cmax [5]: 110 µg/mL
- half-life [5]: 1.3 h
- AUC [5]: 230 µg·h/mL

SMILES: CO/N=C(\C(=O)NC1C(=O)N2C(C(=O)O)=C(Sc3nc4ccccc4o3)CSC12)c1csc(N)n1 (centres unmarked) [Compound C, 7-{(Z)-2-(2-aminothiazol-4-yl)-2-methoxy-iminoacetamido}-3-(benzoxazol-2-yl)thio-3-cephem-4-carboxylic acid]
- Cmax [5]: 141 µg/mL
- half-life [5]: 2.1 h
- AUC [5]: 442 µg·h/mL
